Our source for the Ki and IC50 values is patent US11298363B2, “Triazolobenzazepines as vasopressin V1a receptor antagonists” (RICHTER GEDEON NYRT., priority 2017, dated 2022).

The structures appear in SMILES notation. Where a name gives a salt, the structure may show the parent alone.

The target of assay [1] is T1, human vasopressin V1a receptor (Homo sapiens, UniProt P37288). In words: Human vasopressin V1a receptor binding assay. Conditions: 1321N1 cell membranes, [3H]vasopressin; read-out: Ki (nM) on hV1a cell line. In a few lines: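 Ki values come from IC50 via Cheng-Prusoff (KD from prior Scatchard), averaged over at least two independent runs. Human V1a membranes were incubated with radioligand 60 minutes at 27° C., bound ligand collected by filtration; (Arg^8)-vasopressin at 1.2×10^−6 M defined non-specific binding.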
T1 sequence (P37288 whole entry): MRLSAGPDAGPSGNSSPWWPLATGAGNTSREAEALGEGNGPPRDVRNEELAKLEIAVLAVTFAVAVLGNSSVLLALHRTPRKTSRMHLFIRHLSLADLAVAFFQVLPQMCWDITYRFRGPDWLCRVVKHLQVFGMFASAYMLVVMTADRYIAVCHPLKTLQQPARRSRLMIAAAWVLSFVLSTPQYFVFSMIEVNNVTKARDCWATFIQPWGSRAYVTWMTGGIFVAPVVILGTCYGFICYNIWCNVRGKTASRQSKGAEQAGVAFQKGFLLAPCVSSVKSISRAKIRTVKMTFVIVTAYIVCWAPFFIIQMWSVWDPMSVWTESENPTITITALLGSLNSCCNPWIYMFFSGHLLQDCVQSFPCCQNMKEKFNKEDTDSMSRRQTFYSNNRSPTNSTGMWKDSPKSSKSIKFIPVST

The target in assay [2] is T1, human vasopressin V1a receptor. Kind of assay: Functional assay on human vasopressin V1a receptor expressing cell line (intracellular Ca2+ fluorescence). The class given is cell-based. The following applies: 1321N1 cells, (Arg8)-vasopressin at EC80; read-out: IC50 (nM) on hV1a cell line.

As to `CC(C)NC1Cc2cc(C#N)ccc2-n2c(nnc2[C@H]2CC[C@H](Oc3ccccn3)CC2)C1` (stereo partly drawn) [Example 82, 5-(propan-2-ylamino)-1-[trans-4-(pyridin-2-yloxy)cyclohexyl]-5,6-dihydro-4H-[1,2,4]triazolo[4,3-a][1]benzazepin-8-carbonitrile trifluoroacetate], the Ki in assay [1] was determined as 29 nM. The IC50 in assay [2] was determined as 445 nM.
The corresponding values for `Clc1ccc2c(c1)CC1(Cc3nnc(C4CCN(Cc5ccccn5)C4)n3-2)OCCO1` (centres unmarked) [Example 239, 8′-chloro-1′-[1-(pyridin-2-ylmethyl)pyrrolidin-3-yl]-4′H,6′H-spiro[1,3-dioxolane-2,5′-[1,2,4]triazolo[4,3-a][1]benzazepine]] are 1.2 nM and 5.6 nM.
The corresponding values for `CC(C)NC1Cc2cc(Br)ccc2-n2c(nnc2[C@H]2CC[C@H](C(F)(F)F)CC2)C1` (stereo partly drawn) [Example 46, 8-bromo-N-(propan-2-yl)-1-[trans-4-(trifluoromethyl)cyclohexyl]-5,6-dihydro-4H-[1,2,4]triazolo[4,3-a][1]benzazepine-5-amine] are 23 nM and 410 nM.
The matching figures for `COC1Cc2cc(Cl)ccc2-n2c(nnc2C2CCN([C@H]3CCOC3)CC2)C1` (stereo partly drawn) [Example 175, 8-chloro-5-methoxy-1-{1-[(3S)-tetrahydrofuran-3-yl]piperidin-4-yl}-5,6-dihydro-4H-[1,2,4]triazolo[4,3-a][1]benzazepine]: 50.5 nM and 323 nM.
On to `CCN(CC)[C@H]1Cc2cc(Cl)ccc2-n2c(nnc2[C@H]2CC[C@H](Oc3ccccn3)CC2)C1` [Example 137, (5S)-8-chloro-N,N-diethyl-1-[trans-4-(pyridin-2-yloxy)cyclohexyl]-5,6-dihydro-4H-[1,2,4]triazolo[4,3-a][1]benzazepin-5-amine], for which the Ki in assay [1] came out at 0.7 nM. Also, the IC50 in assay [2] came to 9.2 nM.
The corresponding values for `Clc1ccc2c(c1)C[C@H](N1CCCC1)Cc1nnc([C@H]3CC[C@H](Oc4ccccn4)CC3)n1-2` [Example 117, (5S)-8-chloro-1-[trans-4-pyridin-2-loxcyclohexyl]-5-(pyrrolidin-1-yl)-5,6-dihydro-4H-[1,2,4]triazolo[4,3-a][1]benzazepine] are 0.9 nM and 4.3 nM.
The corresponding values for `NC1Cc2cc(Br)ccc2-n2c(nnc2[C@H]2CC[C@H](Oc3ccccn3)CC2)C1` (stereo partly drawn) [Example 39, 8-bromo-1-[trans-4-(pyridin-2-yloxy)cyclohexyl]-5,6-dihydro-4H-[1,2,4]triazolo[4,3-a][1]benzazepine-5-amine] are 1.4 nM and 8.3 nM.
The matching figures for `CCN[C@H]1Cc2cc(Cl)ccc2-n2c(nnc2[C@H]2CC[C@H](Oc3ccccn3)CC2)C1` [Example 77, (5S)-8-chloro-N-ethyl-1-[trans-4-(pyridin-2-yloxy)cyclohexyl]-5,6-dihydro-4H-[1,2,4]triazolo[4,3-a][1]benzazepine-5-amine]: 1.9 nM and 18 nM.
As for `O=C(N[C@H]1Cc2cc(Cl)ccc2-n2c(nnc2[C@H]2CC[C@H](Oc3ccccn3)CC2)C1)C1CCC1` [Example 121, N-{(5S)-8-chloro-1-[trans-4-(pyridin-2-yloxy)cyclohexyl]-5,6-dihydro-4H-[1,2,4]triazolo[4,3-a][1]benzazepin-5-yl}cyclobutanecarboxamide], the Ki in assay [1] worked out at 79 nM. Further, in assay [2], the IC50 came to 442 nM.
With `C#CCOC1Cc2cc(Cl)ccc2-n2c(nnc2[C@H]2CC[C@H](Oc3ccccn3)CC2)C1` (stereo partly drawn) [Example 211, 8-chloro-5-(prop-2-yn-1-yloxy)-1-[trans-4-(pyridin-2-yloxy)cyclohexyl]-5,6-dihydro-4H-[1,2,4]triazolo[4,3-a][1]benzazepine], the inhibition constant (Ki) in assay [1] was 0.7 nM. In addition, the IC50 in assay [2] was found to be 1.3 nM.
